Calls of active or inactive are those of the source.
Legend:
[1] = target: Serine/threonine-protein phosphatase PP1-alpha catalytic subunit (Homo sapiens, UniProt P62136); assay: inhibition of protein phosphatase 1 activity – biochemical, fluorescence, dose response (AID 2394)
[2] = target: Serine/threonine-protein phosphatase (Homo sapiens, UniProt Q9BPW0); assay: inhibition of protein phosphatase 5 activity – biochemical, fluorescence, dose response (AID 2395)
[3] = target: Glucose-6-phosphate 1-dehydrogenase (Homo sapiens, UniProt P11413); assay: inhibition of Homo sapiens G6PD, dose series – biochemical, fluorescence, selectivity assay for P. falciparum G6PD inhibitor project, dose response (AID 504792); assay type: functional
[4] = target: T1, Apoptotic protease-activating factor 1 (Homo sapiens, UniProt O14727); assay type: functional
T1 sequence (O14727 whole entry): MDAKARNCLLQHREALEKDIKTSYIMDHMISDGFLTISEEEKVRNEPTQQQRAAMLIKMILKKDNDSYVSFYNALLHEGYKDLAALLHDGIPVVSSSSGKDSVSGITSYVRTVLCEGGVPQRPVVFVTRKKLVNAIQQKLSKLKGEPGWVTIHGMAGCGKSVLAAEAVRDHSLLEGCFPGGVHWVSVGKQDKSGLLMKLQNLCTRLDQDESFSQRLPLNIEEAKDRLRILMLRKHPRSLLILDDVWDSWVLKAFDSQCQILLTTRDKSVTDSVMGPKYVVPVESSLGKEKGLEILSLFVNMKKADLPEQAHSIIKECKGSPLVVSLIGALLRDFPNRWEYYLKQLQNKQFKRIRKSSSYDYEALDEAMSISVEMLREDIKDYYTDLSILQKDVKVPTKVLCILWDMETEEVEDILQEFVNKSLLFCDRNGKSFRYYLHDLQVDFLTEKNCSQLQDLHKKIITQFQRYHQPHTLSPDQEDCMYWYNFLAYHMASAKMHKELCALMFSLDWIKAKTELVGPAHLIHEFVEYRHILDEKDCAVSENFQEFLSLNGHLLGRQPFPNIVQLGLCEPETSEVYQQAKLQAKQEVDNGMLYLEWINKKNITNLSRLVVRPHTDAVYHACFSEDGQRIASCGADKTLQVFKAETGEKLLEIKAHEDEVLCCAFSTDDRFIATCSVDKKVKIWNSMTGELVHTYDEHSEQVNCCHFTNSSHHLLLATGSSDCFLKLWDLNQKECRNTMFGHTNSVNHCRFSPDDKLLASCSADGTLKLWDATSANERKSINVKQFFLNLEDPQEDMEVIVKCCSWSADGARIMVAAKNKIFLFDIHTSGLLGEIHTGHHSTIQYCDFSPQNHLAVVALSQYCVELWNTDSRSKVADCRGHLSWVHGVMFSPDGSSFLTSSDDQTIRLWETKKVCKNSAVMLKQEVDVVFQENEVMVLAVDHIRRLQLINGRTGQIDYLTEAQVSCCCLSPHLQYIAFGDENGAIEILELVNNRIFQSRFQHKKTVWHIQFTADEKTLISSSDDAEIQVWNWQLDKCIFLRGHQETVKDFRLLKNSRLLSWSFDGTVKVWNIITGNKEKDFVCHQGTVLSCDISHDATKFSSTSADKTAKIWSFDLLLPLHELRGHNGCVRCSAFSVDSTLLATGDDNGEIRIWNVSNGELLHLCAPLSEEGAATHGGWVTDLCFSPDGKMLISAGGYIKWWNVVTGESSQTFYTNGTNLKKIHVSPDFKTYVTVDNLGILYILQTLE

Genome polyprotein = Genome polyprotein (dengue virus type 2, UniProt P29990); assay: flavivirus cap methylation enzyme inhibition – biochemical, confirmation dose response, primary screen (AID 588689); assay type: functional
[5] = target: Glyceraldehyde-3-phosphate dehydrogenase (Homo sapiens, UniProt P04406)
Bcl-2-related protein A1 [6] = target: T2, Bcl-2-related protein A1 (Mus musculus, UniProt Q07440); assay: small-molecule antagonists of Bfl-1/BH3 interaction – biochemical, TR-FRET, mouse Bfl-1, confirmation (AID 621);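 also: TR-FRET binding of GST-Bfl-1 to FITC-labelled Bid peptide via terbium antibody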
T2 sequence (Q07440 whole entry): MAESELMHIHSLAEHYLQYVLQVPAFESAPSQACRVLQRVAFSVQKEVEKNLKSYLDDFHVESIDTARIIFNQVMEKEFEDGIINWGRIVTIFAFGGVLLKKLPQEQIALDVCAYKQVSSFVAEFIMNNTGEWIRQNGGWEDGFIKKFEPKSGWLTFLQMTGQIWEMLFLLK

Bcl-2-related protein A1 [7] = target: T2, Bcl-2-related protein A1; assay: Bfl-1 binding inhibitors, SAR follow-up, biochemical, fluorescence polarization (AID 1070)
[8] = Luminescence Cell-Based Dose Response to Identify Activators of 5'UTR Stem-Loop Driven Prion Protein mRNA Translation in H4-C Neuroglioblastoma Cells. [Related pubchem assays: 1829 (Project Summary), 1814 (Primary HTS)]; assay type: functional
[9] = Luminescence Cell-Based Dose Response HTS to Identify Activators of Luciferase Translation or Activity in H4 […] Cells. [Related pubchem assays: 1829 (Project Summary), 1814 (Primary HTS)]; assay type: functional
H4 = assay: Luminescence Cell-Based Dose Response HTS to Identify Activators of 5'UTR Stem-Loop Driven Prion Protein mRNA Translation in H4 Neuroglioblastoma Cells. [Related pubchem assays: 1829 (Project Summary), 1814 (Primary HTS)]; assay type: functional; conditions: Homo sapiens
[10] = Luminescence Cell-Based Dose Response to Identify Activators of Luciferase Translation or Activity in H4-C Neuroglioblastoma Cells. [Related pubchem assays: 1829 (Project Summary), 1814 (Primary HTS)]; assay type: functional
Estrogen receptor = target: T3, Estrogen receptor (Homo sapiens, UniProt P03372);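 also: potency for inhibiting coactivator peptide recruitment to the receptor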
T3 sequence (P03372 whole entry): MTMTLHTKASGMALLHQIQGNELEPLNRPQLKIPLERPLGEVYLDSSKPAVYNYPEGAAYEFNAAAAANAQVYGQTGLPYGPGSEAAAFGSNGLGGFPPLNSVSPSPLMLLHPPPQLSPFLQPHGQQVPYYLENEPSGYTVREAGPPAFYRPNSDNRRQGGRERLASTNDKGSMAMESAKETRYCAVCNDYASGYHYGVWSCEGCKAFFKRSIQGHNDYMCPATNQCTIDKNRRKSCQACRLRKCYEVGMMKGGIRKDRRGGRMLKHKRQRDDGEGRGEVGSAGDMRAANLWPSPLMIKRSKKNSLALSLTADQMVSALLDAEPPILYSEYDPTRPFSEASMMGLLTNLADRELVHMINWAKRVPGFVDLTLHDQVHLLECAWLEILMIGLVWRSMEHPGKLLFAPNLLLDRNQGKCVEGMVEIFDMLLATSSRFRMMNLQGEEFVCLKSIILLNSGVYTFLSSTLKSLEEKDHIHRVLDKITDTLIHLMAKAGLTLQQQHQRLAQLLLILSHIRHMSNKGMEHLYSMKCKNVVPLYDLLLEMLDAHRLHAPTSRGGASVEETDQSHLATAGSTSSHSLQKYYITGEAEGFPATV

[11] = Luminescence Cell-Based Dose Confirmation to Identify Activators of 5'UTR Stem-Loop Driven Alpha-Synuclein mRNA Translation in H4 Neuroglioblastoma Cells. [Related pubchem assays: 1829 (Project Summary), 1814 (Primary HTS)]; assay type: functional
[12] = Luminescence Cell-Based Dose Retest to Confirm Inhibitors of Cancer Stem Cells. [Related pubchem assays (depositor defined):AID2717, AID2721]; assay type: functional; conditions: Homo sapiens
Cytochrome P450 2C19 = Cytochrome P450 2C19 (Homo sapiens, UniProt P33261); assay: Cytochrome panel assay with activity outcomes. Panel member name: p450-cyp2c19 Compounds with AC50 equal or less than 10 uM are considered active; assay type: functional; conditions: read-out: AC50
Cytochrome P450 1A2 = target: T4, Cytochrome P450 1A2 (Homo sapiens, UniProt P05177);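 also: PubChem cytochrome P450 panel assay, CYP1A2 panel member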
T4 sequence (P05177 whole entry): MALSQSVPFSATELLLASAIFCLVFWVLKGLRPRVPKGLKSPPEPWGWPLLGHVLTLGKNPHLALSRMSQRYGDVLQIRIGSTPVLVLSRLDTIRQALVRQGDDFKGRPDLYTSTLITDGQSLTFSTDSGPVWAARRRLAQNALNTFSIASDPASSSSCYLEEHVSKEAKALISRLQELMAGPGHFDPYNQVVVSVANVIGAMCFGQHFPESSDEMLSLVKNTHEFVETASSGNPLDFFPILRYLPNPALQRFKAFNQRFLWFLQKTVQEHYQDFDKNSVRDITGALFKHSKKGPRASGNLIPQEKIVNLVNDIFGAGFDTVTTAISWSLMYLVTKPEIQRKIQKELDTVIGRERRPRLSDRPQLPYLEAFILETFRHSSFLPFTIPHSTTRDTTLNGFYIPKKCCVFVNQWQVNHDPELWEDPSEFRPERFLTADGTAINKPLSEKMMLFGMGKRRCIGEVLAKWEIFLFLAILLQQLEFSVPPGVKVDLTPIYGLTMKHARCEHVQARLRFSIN

Cytochrome P450 2C9 = Cytochrome P450 2C9 (Homo sapiens, UniProt P11712)
Vero = assay: mammalian cell viability reduction – secondary assay, cytotoxicity control for West Nile virus antiviral project, dose response (AID 1650); assay type: functional; conditions: Chlorocebus sabaeus
[13] = viability loss in Vero cells – cytotoxicity control for Vif-APOBEC3G degradation inhibitor project, dose response (AID 1117358); assay type: functional; conditions: Vero
[14] = target: Voltage-gated inwardly rectifying potassium channel KCNH2 (Homo sapiens, UniProt Q12809); assay: concentration-dependent hERG rescue from blockers – cell-based, thallium flux, dose response (AID 2121); assay type: ADME
[15] = target: T5, Replicative DNA helicase DnaB (Mycobacterium tuberculosis, UniProt P9WMR3); assay: DnaB intein splicing inhibitors, dose response, biochemical, cell-free fluorescence (AID 449749); assay type: functional
T5 sequence (P9WMR3 whole entry): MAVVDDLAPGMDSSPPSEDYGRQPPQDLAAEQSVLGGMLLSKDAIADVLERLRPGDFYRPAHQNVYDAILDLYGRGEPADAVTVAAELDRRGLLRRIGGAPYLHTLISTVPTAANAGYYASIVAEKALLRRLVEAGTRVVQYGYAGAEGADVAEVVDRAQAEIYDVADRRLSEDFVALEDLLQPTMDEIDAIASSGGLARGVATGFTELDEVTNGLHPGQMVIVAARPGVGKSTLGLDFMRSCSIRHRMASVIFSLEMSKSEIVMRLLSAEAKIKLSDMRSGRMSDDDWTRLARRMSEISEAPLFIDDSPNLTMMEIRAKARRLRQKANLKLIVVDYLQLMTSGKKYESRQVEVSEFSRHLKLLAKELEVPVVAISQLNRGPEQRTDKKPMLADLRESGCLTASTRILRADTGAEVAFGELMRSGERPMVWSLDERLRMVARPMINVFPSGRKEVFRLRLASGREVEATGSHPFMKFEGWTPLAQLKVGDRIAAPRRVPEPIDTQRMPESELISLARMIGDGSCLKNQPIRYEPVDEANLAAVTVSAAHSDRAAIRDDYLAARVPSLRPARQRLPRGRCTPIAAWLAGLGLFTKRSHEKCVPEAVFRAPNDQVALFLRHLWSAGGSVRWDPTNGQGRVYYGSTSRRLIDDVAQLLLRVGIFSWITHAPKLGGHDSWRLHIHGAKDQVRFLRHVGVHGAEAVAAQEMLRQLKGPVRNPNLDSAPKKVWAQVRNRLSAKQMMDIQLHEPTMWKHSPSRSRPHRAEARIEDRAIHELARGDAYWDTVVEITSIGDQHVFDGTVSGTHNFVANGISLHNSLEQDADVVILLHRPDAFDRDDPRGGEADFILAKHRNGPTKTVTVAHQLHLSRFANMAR

Protein RecA = target: T6, Protein RecA (Mycobacterium tuberculosis, UniProt P9WHJ3); assay: Fluorescence Cell-Free Homogeneous Dose Retest to Identify Inhibitors of RecA-Intein Splicing Activity. [Related pubchem assays (depositor defined):AID2097, AID2223, AID489010, AID492950]; assay type: functional
T6 sequence (P9WHJ3 whole entry): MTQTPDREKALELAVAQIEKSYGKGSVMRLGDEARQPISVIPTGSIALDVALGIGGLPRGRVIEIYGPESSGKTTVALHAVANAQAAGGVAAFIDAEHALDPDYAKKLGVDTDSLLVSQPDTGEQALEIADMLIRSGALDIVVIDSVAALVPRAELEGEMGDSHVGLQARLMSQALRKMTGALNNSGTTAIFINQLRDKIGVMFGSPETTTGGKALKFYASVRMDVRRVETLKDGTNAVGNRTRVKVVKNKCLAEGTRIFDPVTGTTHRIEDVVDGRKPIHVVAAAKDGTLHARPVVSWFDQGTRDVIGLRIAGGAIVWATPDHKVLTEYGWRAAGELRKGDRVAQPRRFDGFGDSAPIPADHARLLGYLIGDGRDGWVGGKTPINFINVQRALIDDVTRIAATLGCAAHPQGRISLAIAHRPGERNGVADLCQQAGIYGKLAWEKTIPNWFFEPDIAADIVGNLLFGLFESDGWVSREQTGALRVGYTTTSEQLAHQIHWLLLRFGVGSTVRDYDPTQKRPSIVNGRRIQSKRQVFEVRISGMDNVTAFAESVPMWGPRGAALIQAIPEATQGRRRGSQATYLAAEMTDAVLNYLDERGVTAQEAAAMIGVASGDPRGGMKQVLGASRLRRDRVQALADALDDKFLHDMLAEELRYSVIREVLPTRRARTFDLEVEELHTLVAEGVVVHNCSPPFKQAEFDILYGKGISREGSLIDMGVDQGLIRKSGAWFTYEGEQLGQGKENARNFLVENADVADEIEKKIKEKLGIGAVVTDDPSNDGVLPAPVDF

Cytochrome P450 2D6 = Cytochrome P450 2D6 (Homo sapiens, UniProt P10635);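 also: CYP2D6 member of a cytochrome P450 panel assay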
Cytochrome P450 2D6, sequence (P10635 whole entry): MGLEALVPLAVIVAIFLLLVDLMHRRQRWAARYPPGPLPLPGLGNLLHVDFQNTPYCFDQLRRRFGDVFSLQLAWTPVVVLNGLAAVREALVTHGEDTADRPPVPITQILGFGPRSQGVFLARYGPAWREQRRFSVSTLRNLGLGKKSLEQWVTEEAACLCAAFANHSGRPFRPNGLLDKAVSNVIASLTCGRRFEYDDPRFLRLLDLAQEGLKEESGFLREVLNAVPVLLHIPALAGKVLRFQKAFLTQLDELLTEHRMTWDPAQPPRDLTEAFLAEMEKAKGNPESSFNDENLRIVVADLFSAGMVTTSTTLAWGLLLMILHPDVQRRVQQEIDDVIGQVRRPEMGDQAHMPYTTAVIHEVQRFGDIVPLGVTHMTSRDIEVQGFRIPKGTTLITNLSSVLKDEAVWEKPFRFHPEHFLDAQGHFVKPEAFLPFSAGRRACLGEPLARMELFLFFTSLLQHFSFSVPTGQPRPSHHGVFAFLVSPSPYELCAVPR

Glyceraldehyde-3-phosphate dehydrogenase, sequence (P04406 whole entry): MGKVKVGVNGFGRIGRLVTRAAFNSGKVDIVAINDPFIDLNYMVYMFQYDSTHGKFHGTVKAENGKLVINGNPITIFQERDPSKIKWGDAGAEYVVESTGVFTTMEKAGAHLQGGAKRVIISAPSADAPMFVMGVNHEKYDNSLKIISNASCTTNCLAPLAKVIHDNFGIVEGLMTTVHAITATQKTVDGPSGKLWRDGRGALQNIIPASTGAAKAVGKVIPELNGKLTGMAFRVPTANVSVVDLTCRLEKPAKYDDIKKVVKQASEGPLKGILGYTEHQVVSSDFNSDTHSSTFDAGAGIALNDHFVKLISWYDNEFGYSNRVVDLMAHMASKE
Genome polyprotein, sequence (P29990 2492-3391 limits assumed): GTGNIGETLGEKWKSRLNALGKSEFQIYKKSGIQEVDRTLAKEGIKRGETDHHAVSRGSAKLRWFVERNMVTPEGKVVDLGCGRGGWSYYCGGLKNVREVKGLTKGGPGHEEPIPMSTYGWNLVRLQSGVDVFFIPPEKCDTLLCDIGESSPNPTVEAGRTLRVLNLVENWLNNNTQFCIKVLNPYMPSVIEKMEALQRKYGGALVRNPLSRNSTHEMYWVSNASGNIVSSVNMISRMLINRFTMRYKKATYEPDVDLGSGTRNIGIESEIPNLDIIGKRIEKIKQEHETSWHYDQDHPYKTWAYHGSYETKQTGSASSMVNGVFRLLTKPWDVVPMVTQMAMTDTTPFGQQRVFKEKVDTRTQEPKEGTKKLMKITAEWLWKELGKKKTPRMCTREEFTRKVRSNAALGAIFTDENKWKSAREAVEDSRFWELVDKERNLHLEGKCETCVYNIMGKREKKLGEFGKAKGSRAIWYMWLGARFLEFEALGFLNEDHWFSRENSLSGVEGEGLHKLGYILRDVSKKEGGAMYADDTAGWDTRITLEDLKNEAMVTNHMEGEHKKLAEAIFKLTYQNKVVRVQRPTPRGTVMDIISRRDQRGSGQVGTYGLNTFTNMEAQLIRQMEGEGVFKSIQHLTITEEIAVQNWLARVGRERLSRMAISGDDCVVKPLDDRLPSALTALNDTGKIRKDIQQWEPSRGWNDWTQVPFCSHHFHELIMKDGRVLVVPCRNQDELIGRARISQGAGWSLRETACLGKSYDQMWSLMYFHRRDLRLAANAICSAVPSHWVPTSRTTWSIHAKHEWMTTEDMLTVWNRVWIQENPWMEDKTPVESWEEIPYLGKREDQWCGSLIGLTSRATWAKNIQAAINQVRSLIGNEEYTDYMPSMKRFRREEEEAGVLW
Glucose-6-phosphate 1-dehydrogenase, sequence (P11413 whole entry): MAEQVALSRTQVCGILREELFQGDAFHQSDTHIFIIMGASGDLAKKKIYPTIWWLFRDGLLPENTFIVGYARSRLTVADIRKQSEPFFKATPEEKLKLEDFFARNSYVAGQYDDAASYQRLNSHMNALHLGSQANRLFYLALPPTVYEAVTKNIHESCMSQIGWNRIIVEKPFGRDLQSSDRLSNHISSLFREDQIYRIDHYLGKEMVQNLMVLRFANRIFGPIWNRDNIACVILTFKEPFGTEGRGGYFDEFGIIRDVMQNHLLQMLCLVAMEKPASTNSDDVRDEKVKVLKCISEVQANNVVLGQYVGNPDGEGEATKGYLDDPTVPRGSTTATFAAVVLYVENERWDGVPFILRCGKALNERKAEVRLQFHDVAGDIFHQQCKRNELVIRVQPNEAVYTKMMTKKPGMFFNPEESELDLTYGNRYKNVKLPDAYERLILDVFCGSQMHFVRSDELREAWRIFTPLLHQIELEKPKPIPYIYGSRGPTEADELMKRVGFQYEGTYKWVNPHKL
Serine/threonine-protein phosphatase PP1-alpha catalytic subunit, sequence (P62136 whole entry): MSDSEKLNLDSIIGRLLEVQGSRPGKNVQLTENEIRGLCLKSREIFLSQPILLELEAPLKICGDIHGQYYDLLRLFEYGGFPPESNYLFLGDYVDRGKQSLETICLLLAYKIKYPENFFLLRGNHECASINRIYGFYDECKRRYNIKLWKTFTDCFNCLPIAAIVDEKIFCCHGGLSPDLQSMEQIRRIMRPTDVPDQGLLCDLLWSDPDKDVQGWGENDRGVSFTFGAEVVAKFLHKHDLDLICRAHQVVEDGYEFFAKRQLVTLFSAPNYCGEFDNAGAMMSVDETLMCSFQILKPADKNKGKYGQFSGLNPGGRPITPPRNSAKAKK
Cytochrome P450 2C19, sequence (P33261 whole entry): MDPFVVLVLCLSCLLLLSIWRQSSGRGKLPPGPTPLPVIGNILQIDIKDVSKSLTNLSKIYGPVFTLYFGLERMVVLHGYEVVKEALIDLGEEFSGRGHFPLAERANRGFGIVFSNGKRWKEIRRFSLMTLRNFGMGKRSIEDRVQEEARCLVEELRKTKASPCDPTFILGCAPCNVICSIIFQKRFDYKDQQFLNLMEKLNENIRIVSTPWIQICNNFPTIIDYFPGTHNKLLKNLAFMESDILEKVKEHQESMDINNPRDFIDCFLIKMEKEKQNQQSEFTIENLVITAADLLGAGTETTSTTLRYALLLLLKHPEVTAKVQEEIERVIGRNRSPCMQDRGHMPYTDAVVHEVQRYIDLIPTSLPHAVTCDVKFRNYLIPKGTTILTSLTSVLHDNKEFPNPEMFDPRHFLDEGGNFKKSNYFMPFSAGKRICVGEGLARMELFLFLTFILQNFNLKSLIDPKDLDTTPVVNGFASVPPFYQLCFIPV
Serine/threonine-protein phosphatase, sequence (Q9BPW0 whole entry): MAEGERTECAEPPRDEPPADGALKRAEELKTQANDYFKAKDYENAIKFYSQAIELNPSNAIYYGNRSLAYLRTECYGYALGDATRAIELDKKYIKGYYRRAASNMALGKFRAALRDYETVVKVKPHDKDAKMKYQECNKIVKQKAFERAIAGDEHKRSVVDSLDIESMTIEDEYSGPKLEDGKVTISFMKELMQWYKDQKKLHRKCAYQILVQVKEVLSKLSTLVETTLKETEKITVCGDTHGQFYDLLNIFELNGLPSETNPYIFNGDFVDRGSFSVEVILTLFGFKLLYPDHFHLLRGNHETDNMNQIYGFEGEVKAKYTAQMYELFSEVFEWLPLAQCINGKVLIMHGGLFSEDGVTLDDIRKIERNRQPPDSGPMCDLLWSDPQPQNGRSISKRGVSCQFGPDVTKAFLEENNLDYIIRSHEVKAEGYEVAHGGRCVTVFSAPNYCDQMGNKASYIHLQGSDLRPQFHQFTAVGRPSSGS
Cytochrome P450 2C9, sequence (P11712 whole entry): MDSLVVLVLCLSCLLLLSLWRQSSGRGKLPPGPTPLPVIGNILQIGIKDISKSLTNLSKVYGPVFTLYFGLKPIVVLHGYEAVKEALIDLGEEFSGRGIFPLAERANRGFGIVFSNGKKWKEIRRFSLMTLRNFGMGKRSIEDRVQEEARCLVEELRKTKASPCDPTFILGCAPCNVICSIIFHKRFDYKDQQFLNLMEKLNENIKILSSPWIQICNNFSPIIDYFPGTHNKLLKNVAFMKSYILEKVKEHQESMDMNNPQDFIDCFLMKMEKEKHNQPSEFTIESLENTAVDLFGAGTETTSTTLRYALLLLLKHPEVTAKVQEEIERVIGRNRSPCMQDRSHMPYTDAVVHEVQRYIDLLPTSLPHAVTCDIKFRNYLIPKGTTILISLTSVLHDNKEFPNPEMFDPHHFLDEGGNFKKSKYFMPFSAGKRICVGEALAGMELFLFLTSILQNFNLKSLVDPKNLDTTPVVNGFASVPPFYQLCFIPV

Compound: COC(=O)CCC(=O)OC1(C)C(=O)C2=CN(C3CC3)C(c3ccc(OC)cc3)=CC2=C(Br)C1=O (centres undefined)
- IC50 [1]: 46.2 µM (not active)
- IC50 [2]: 8.96 µM (active)
- IC50 [3]: 31.1 µM (inactive)
- IC50 [4]: 22 µM (active)
- IC50 (Genome polyprotein): > 100 µM (active)

Compound: O=C1C(Cl)=C(N2CCOCC2)C(=O)N1c1cccc(Cl)c1Cl
- IC50 [5]: > 10 µM (inconclusive)
- IC50 (Bcl-2-related protein A1 [6]): 1.52 µM (active)
- IC50 (Bcl-2-related protein A1 [7]): 4.05 µM (active)

Compound: CCCc1cc2c(=O)c(-c3ccc4c(c3)OCCO4)coc2cc1OC(=O)c1ccco1
- EC50 [8]: 0.306 µM (active)
- EC50 [9]: < 0.1 µM (active)
- EC50 (H4): > 120 µM (not active)
- EC50 [10]: 0.376 µM (active)
- IC50 (Estrogen receptor): > 50 µM (not active)
- EC50 [11]: 0.388 µM (active)
- AC50 [12]: 3.85 µM (active)
- AC50 (Cytochrome P450 2C19): 2.51 µM (inconclusive)
- AC50 (Cytochrome P450 1A2): 2 µM (inconclusive)
- AC50 (Cytochrome P450 2C9): inconclusive

Compound: Cc1cc(C)n(Cc2ccc(NC(=O)c3nn(C)cc3[N+](=O)[O-])cc2)n1
- CC50 (Vero): 9.3 µM (active)
- CC50 [13]: 20.8 µM (active)

Compound: CN1C(=O)/C(=N\OC(=O)c2cccc3ccccc23)c2ccccc21
- EC50 [14]: 1.17 µM (active)
- AC50 [15]: 7.38 µM (active)
- EC50 (Protein RecA): 15 µM (active)
- AC50 (Cytochrome P450 2D6): 12.6 µM (inconclusive)
